Like-named read-outs stand apart in the source and are kept apart here.
How the values were obtained:
[1] = for AUCinf (molar ratio of 2‐hydroxy‐atorvastatin to atorvastatin) / Cmax (molar ratio of 2‐hydroxy‐atorvastatin to atorvastatin): mean (%CV); for increase in Cmax with filgotinib coadministration relative to statin alone: pravastatin 40 mg / rosuvastatin 10 mg, filgotinib 200 mg once daily
Safety assessment = format: in vivo, human (healthy adult participants); conditions: by treatment arm
[2] = system: cytochrome P450 enzymes or uridine 5’‐diphospho‐glucuronosyltransferases; conditions: in vitro; cited from earlier work
JAK1 = conditions: human whole blood assay; cited from earlier work
[3] = cited from earlier work
[4] = no reference given, cited from earlier work
[5] = clinical trials and postmarketing surveillance; cited from earlier work
[6] = 2-hydroxy-atorvastatin after atorvastatin 40 mg alone, n = 25, median (Q1-Q3)
[7] = 2-hydroxy-atorvastatin, atorvastatin + filgotinib vs atorvastatin alone
[8] = atorvastatin 40 mg + filgotinib 200 mg once daily, n = 26
[9] = atorvastatin 40 mg alone, n = 25
[10] = atorvastatin + filgotinib vs atorvastatin alone
[11] = both, human, plasma, oral, 40 mg
[12] = both, human, plasma, oral, 10 mg
[13] = rosuvastatin + filgotinib vs rosuvastatin alone

## CC(C)c1c(C(=O)Nc2ccccc2O)c(-c2ccccc2)c(-c2ccc(F)cc2)n1CCC(O)CC(O)CC(=O)O (stereo not shown) [2‐Hydroxy‐Atorvastatin, 2‐hydroxy‐atorvastatin]
[1]; [6]
  t1/2: 9.1 (7.1‐10.9) h
  tmax: 2.0 (1.5‐4.1) h
[1]; [7]
  AUCinf GLSM Ratio (90% CI): 1.11 (1.02‐1.22)
  AUClast GLSM Ratio (90% CI): 1.12 (1.02‐1.23)
  Cmax GLSM Ratio (90% CI): 0.98 (0.81‐1.19)
[1]; [8]
  AUCinf (molar ratio of 2‐hydroxy‐atorvastatin to atorvastatin): 1.6 (26.3)
  Cmax (molar ratio of 2‐hydroxy‐atorvastatin to atorvastatin): 0.8 (29.3)
[1]; [9]
  AUCinf (molar ratio of 2‐hydroxy‐atorvastatin to atorvastatin): 1.3 (35.1)
  Cmax (molar ratio of 2‐hydroxy‐atorvastatin to atorvastatin): 0.7 (43.9)
[1]; [10]
  AUCinf (molar ratio of 2‐hydroxy‐atorvastatin to atorvastatin) GLSM Ratio (90% CI): 1.22 (1.15‐1.29)
  Cmax (molar ratio of 2‐hydroxy‐atorvastatin to atorvastatin) GLSM Ratio (90% CI): 1.19 (1.06‐1.33)

## CC(C)c1c(C(=O)Nc2ccccc2)c(-c2ccccc2)c(-c2ccc(F)cc2)n1CC[C@@H](O)C[C@@H](O)CC(=O)O [Atorvastatin]
Safety assessment
  participants with treatment‐emergent AE related to study drug, n (%): 3 (11.5%)
Safety assessment; all mild or moderate
  headache, n [%]: 2 [7.7%]

## Nc1nc2cccc(-c3ccc(CN4CCS(=O)(=O)CC4)cc3)n2n1 [GS‐829845]
[2]
  interaction with cytochrome P450 enzymes or UGTs: do not interact
JAK1
  reduced potency relative to filgotinib: ≈ 10 fold
[3]
  effect on QT interval: not affect QT interval
[4]; multiple once-daily dosing of filgotinib
  time to achieve steady-state plasma concentrations: ≈ 4 days
[4]
  accumulation in plasma following multiple once-daily dosing of filgotinib: approximately 2 fold

## CC[C@H](C)C(=O)O[C@H]1C[C@H](O)C=C2C=C[C@H](C)[C@H](CC[C@@H](O)C[C@@H](O)CC(=O)O)[C@H]21 [Pravastatin]
[1]; [11]
  AUC(0-inf): 201 ng·h/mL
  AUC(0-t): 200 ng·h/mL
  tmax: 1 h
[1]; both, human, plasma, oral, t1/2, pravastatin 40 mg (cocktail) + filgotinib 200 mg once daily, n = 26, mean (standard deviation)
  half-life: 6.57 h
[1]; both, human, plasma, oral, t1/2, pravastatin 40 mg (cocktail) + filgotinib 200 mg once daily, n = 26, median (Q1-Q3)
  half-life: 5.6 h
[1]
  increase in Cmax with filgotinib coadministration relative to statin alone: 25%
[1]; pravastatin + filgotinib vs pravastatin alone
  AUClast GLSM Ratio (90% CI): 1.22 (1.05‐1.41)

## CC(C)c1nc(N(C)S(C)(=O)=O)nc(-c2ccc(F)cc2)c1/C=C/[C@@H](O)C[C@@H](O)CC(=O)O [Rosuvastatin]
[1]; [12]
  AUC(0-inf): 66 ng·h/mL
  Cmax: 7.5 ng/mL
[1]; both, human, plasma, oral, t1/2, rosuvastatin 10 mg (cocktail) + filgotinib 200 mg once daily, n = 26, median (Q1-Q3)
  half-life: 15.4 h
[1]
  increase in Cmax with filgotinib coadministration relative to statin alone: 68%
[1]; rosuvastatin 10 mg alone (cocktail), n = 25, median (Q1-Q3)
  tmax: 3.0 (2.0‐4.0) h
[1]; [13]
  AUCinf GLSM Ratio (90% CI): 1.42 (1.30‐1.57)
  AUClast GLSM Ratio (90% CI): 1.46 (1.32‐1.62)
  Cmax GLSM Ratio (90% CI): 1.68 (1.43‐1.97)
[5]
  myopathy related to rosuvastatin, patients: ≤ 0.03%

## O=C(Nc1nc2cccc(-c3ccc(CN4CCS(=O)(=O)CC4)cc3)n2n1)C1CC1 [Filgotinib]
[2]
  interaction with cytochrome P450 enzymes or UGTs: do not interact
Safety assessment
  participants with treatment‐emergent AE related to study drug, n (%): 8 (30.8%)
Safety assessment; all mild or moderate
  headache, n [%]: 5 [19.2%]
  nausea, n [%]: 3 [11.5%]
[3]
  effect on QT interval: not affect QT interval
[4]
  accumulation in plasma following multiple once-daily dosing of filgotinib: does not accumulate
